Consider 17 compounds from ChEMBL document CHEMBL4665765, “Antimalarial activity of tetrahydro-β-carbolines targeting the ATP binding pocket of the Plasmodium falciparum heat shock 90 protein” (Bioorg Med Chem Lett, 2020).

Broadly, the EC50 is the concentration giving half of the maximal effect.

Series [1] is described as follows: Therapeutic index, ratio of EC50 for cytotoxicity against human BJ cells to EC50 for antimalarial activity against Plasmodium falciparum 3D7. Type of series: toxicity, cell-based. The settings on record: read-out: Ratio EC50.
The next series relates to BJ. Description: Cytotoxicity against human BJ cells. The class given is cell-based.
For series [2], the system named is Plasmodium falciparum. The series can be described thus: Antimalarial activity against chloroquine-sensitive Plasmodium falciparum 3D7 infected in o-positive erythrocyte assessed as reduction in parasite growth. Type of series: functional, organism-based. As to conditions: 3D7, Erythrocyte.
In a further series the test system is HepG2. Description: Cytotoxicity against human HepG2 cells assessed as reduction in cell viability incubated for 48 hrs by CCK8 assay. The class given is cell-based. As to conditions: HepG2, 48 h. On the technique in general: Tetrazolium assays rely on reduction of a dye to a coloured formazan, in cell work by metabolically active cells.
The test system of series [3] is Plasmodium falciparum. Description: Antimalarial activity against Plasmodium falciparum 3D7 infected in erythrocytes assessed as reduction in parasite growth incubated for 72 hrs by SYBR green dye based fluorescence assay. The class given is functional, organism-based. As to conditions: 3D7, Erythrocyte.
A further series deals with HeLa. Description: Cytotoxicity against human HeLa cells assessed as reduction in cell viability incubated for 48 hrs by CCK8 assay. The class given is cell-based.

Each structure is given as a SMILES string.

Take `Cc1cccc(C2NCCc3c2[nH]c2ccc(Cl)cc32)c1` (stereo unspecified): the selectivity ratio in series [1] is 68. The EC50 is more than 24 µM in the series with BJ and 0.352 µM in the series on Plasmodium falciparum [2].
For `Clc1ccc2[nH]c3c(c2c1)CCNC3c1ccc2ccccc2c1` (stereo unspecified), in series [1], the selectivity ratio amounted to 1. In addition, the EC50 with BJ was found to be 17.2 µM; with Plasmodium falciparum [2], 16.6 µM.
For `CCn1c2c(c3cc(Cl)ccc31)CCNC2C` (stereo unspecified) the same measures were 1, more than 24 µM and more than 18 µM.
As for `Oc1ccccc1C1NCCc2c1[nH]c1ccc(Cl)cc21` (stereo unspecified), the selectivity ratio in series [1] is 4. The EC50 in the series on BJ turned out to be 15.7 µM; with Plasmodium falciparum [2], 4.35 µM.
For the compound `Oc1cccc(C2NCCc3c2[nH]c2ccc(Cl)cc32)c1` (stereo unspecified), the selectivity ratio in series [1] was determined as 3. For the same compound, the EC50 in the series with BJ is more than 24 µM; in the series on Plasmodium falciparum [2], 7.53 µM.
For `Clc1ccc2[nH]c3c(c2c1)CCNC3Cc1ccccc1` (stereo unspecified) the same measures were 2, more than 24 µM and 10.9 µM.
Turning to `Clc1ccc(C2NCCc3c2[nH]c2ccc(Cl)cc32)cc1` (stereo unspecified), in series [1], the selectivity ratio came to 2. Moreover, the EC50 with BJ came out at 23 µM; with Plasmodium falciparum [2] it was 13.3 µM.
Take `Clc1ccc2[nH]c3c(c2c1)CCNC3c1ccccc1` (stereo unspecified): the selectivity ratio in series [1] is 14. In addition, the values for the EC50 in the series with BJ and in the series on Plasmodium falciparum [2] were more than 24 µM and 1.67 µM, respectively.
For `Cc1ccccc1C1NCCc2c1[nH]c1ccc(Cl)cc21` (stereo unspecified) the same measures were 12, more than 24 µM and 2.08 µM.
Consider `CC1NCCc2c1n(C)c1ccc(Cl)cc21` (stereo unspecified), for which the selectivity ratio in series [1] came to 1. The results for the EC50 in the series with BJ and in the series with Plasmodium falciparum [2] were more than 24 µM and more than 18 µM, respectively.
For `Clc1ccc2[nH]c3c(c2c1)CCNC3c1ccccc1Cl` (stereo unspecified) the same measures were 12, more than 24 µM and 1.94 µM.
In the case of `Cc1ccc(C2NCCc3c2[nH]c2ccc(Cl)cc32)cc1` (stereo unspecified), in series [1], the selectivity ratio came to 1. The EC50 with BJ was more than 24 µM; in the series with Plasmodium falciparum [2], 17.9 µM.
For `Clc1ccc2[nH]c3c(c2c1)CCNC3C1CCCCC1` (stereo unspecified) the same measures were 2, more than 24 µM and 12.1 µM.
Turning to `CC1NCCc2c1[nH]c1ccc(Cl)cc21` (stereo unspecified), the EC50 in the series with HepG2 worked out at 160 µM; in the series on Plasmodium falciparum [3], 12.2 µM; in the series with HeLa, 1.1 mM.
For the compound `Oc1ccc(C2NCCc3c2[nH]c2ccc(Cl)cc32)cc1` (stereo unspecified), the selectivity ratio in series [1] turned out to be 5. The 50% effective concentration (EC50) with BJ was more than 24 µM; in the series with Plasmodium falciparum [2], 4.45 µM.
For `Clc1cccc(C2NCCc3c2[nH]c2ccc(Cl)cc32)c1` (stereo unspecified) the same measures were 9, 23.6 µM and 2.53 µM.
As for `Clc1ccc2[nH]c3c(c2c1)CCNC3c1cccc2ccccc12` (stereo unspecified), in series [1], the selectivity ratio is 3. The EC50 with BJ is more than 24 µM; in the series on Plasmodium falciparum [2] it was 7.06 µM.
